{"source": "patent US20130023504A1", "about": "“Modulation of Prostaglandin/Cyclooxygenase Metabolic Pathways” (HUNTER-FLEMING LIMITED, priority 2006, published 2013)", "key": {"[1]": {"test_system": "rat spinal cord motor neurones", "assay": "Neurite growth of spinal cord motor neurones in primary culture (anti β-Tubulin, In Cell Analyzer)", "format": "cell-based", "description": "Rat spinal motor neurones were prepared according to the method described by Martinou et al., 1992 (Martinou J C, Martinou I, Kato AC Cholinergic differentiation factor (CDF/LIF) promotes survival of isolated rat embryonic motoneurons in vitro. Neuron. 1992 April; 8(4):737-44). Briefly, pregnant female Wistar rats of 15 days gestation, were killed by cervical dislocation and the foetuses were removed from the uterus. Their spinal cords were removed and placed in ice-cold medium of Leibovitz (L15, Invitrogen, 11415-049) containing 1% of bovine serum albuminutes (BSA fatty acid free, Eurobio, Les Ulis, France, GXXBSA01-65). Meninges were carefully removed.\nThe spinal motor neurones were dissociated by trypsinisation for 20 minutes at 37° C. (trypsin EDTA 10× Invitrogen 15400054) diluted in PBS without calcium and magnesium (Invitrogen 2007-03). The reaction was stopped by the addition of Dulbecco Modified Eagle's Media (DMEM, Invitrogen 21969-035) containing DNase I grade II (0.1 mg/ml Roche diagnostic 104159) and 10% foetal calf serum (FCS, Invitrogen 10270098). The suspension was then mechanically dissociated by 3 passages through a 10 ml pipette. Cells were then centrifuged at 580 g for 10 minutes at room temperature. The pellet of dissociated cells was re-suspended in L15 medium and the resulting suspension was enriched in motor neurones by centrifugation at 180×g for 10 minutes at room temperature on a layer of BSA solution (3.5%) in L15 medium. The supernatant was discarded and the pellet was re-suspended in L15 medium supplemented with DNase I (1%). Then the suspension was layered over a cushion of Optiprep (d: 1.06 g/ml; Abcys, Paris, France; 1030061) and centrifuged at 335×g for 15 minutes at room temperature. The upper phase, containing the purified motor neurones, was collected, re-suspended with L15 medium and centrifuged at 800×g for 10 minutes at room temperature. The cell pellet was finally resuspended in a defined culture medium consisting of neurobasal medium supplemented with 2% B27, 2 mM L-Glutamine and Penicillin 50 Ul/ml-Streptomycin 50 μg/ml. Viable cells were counted in a Neubauer cytometer using the trypan blue exclusion test (Sigma T8154) then plated at 30 000 cells/well in 96 well-plates (pre-coated with poly-1-lysine; Nunclon, Invitrogen P5899) and cultured at 37° C. in a humidified air (95%) CO2 (5%) atmosphere.\nThe culture medium was changed into a defined culture medium after a 12 hours incubation period following the conditions described below:\nBDNF 50 ng/ml and 10 ng/ml (in 0.1% DMSO)\nAfter 6 hours, 12 hours and 24 hours of incubation with, cells were fixed for 5 minutes in an ethanol/acetic acid solution (95%/5%) at −20° C. and rinsed 3 times in PBS.\nMotor neurones and sensory neurones were labelled by monoclonal anti β-Tubulin antibody (Sigma T8660) diluted at 1:400 in incubation solution (PBS with 5% of FCS and 0.1% of saponin, Sigma S-7900). This antibody specifically labels neurone cell bodies and neurites.\nAfter 2 hours of incubation, the cells were washed in PBS and incubated with Alexa Fluor 488 goat anti mouse IgG (Molecular Probes A11001) diluted at 1:300 in incubation solution to reveal the 8-Tubulin III antibodies.\nAnalysis of the total length of neurones labelled with anti β-Tubulin antibodies (neurones) were carried out using In Cell Analyzer 1000 3.2.Workstation software.\nThe results were expressed in percentage compared to the vehicle. Comparison of groups was carried out using the unpaired T test."}, "[2]": {"test_system": "collagen-induced arthritis", "assay": "Collagen-induced arthritis (CII/CFA), histopathology, clinical score, knee homogenate prostaglandins", "format": "in vivo, mouse"}, "PC-12 cells": {"test_system": "PC-12 cells", "assay": "Ischaemia (oxygen-glucose deprivation)-induced cell death in NGF-differentiated PC-12 cells, Trypan Blue exclusion", "format": "cell-based", "settings": "vs. ischemia alone", "description": "PC-12 cells were maintained on flasks coated with Collagen typel in PC-12 media with the following composition; RPMI 1640 without L-glutamine with 2 mM L-glutamine, 10 mM HEPES, 1 mM Sodium Pyruvate, additional glucose to give a final concentration of 4.5 g/L (RPMI normally has 2 g/L), 10% heat inactivated horse serum, 5% foetal calf serum and 50 units of penicillin/streptomycin. Media was changed every 2 days.\nConfluent cultures of PC-12 cells were differentiated by culturing for 7 days in PC-12 medium without serum but with 50 ng/mlNGF (PC-12 NGF media). The cells were harvested, washed, counted and 1×10^5 PC-12 cells/well were plated overnight in a micro titre plate in glucose free PC-12 NGF medium. The medium was then changed to glucose-free PC-12 NGF medium containing the compounds to be tested and the plates left under normoxic conditions for 30 minutes.\nDuring this stage, the media and test substances for the anoxic exposure were placed in a chamber and de-oxygenated with 95% N2/5% CO2. The media in the plates was changed with the de-oxygenated media and the plates then placed in an anaerobic chamber gassed with 95% N2 5% CO2 for 10 minutes before being sealed and incubated at 37° C. overnight (18 hours). For normoxia controls, the cells were treated identically to ischemic treatments except that all incubations were in 5% CO2/95% air.\nViability was determined using Trypan Blue exclusion."}}, "note": "Values joined by “and” are separate entries in the source; they are usually repeats but may differ in a detail not shown here. Identical values can stand only once. Marks after values point to notes of the source that are not given here."}
{"smiles": "CC12CCC3C(C1CCC2=O)[C@@H](O)C[C@H]1C[C@@H](O)CCC31C", "note": "(stereo partly drawn) [Compound 7β-OH-EPIA, 7β-hydroxy-EPIAndrosterone]", "values": [{"measurement": "Neurites length per field, % Vehicle", "setting": "[1]; 10^−4 M, 6 hours", "result": 124, "unit": "%"}, {"measurement": "Neurites length per field, Mean", "setting": "[1]; 10^−4 M, 6 hours", "result": 315.9, "unit": "μm"}, {"measurement": "Neurites length per field, % Vehicle", "setting": "[1]; 10^−4 M, 12 hours", "result": 142, "unit": "%"}, {"measurement": "Neurites length per field, Mean", "setting": "[1]; 10^−4 M, 12 hours", "result": 602.4, "unit": "μm"}, {"measurement": "Neurites length per field, % Vehicle", "setting": "[1]; 10^−4 M, 24 hours", "result": 87, "unit": "%"}, {"measurement": "Neurites length per field, Mean", "setting": "[1]; 10^−4 M, 24 hours", "result": 188.4, "unit": "μm"}, {"measurement": "Neurites length per field, % Vehicle", "setting": "[1]; 10^−5 M, 6 hours", "result": 115, "unit": "%"}, {"measurement": "Neurites length per field, Mean", "setting": "[1]; 10^−5 M, 6 hours", "result": 293.3, "unit": "μm"}, {"measurement": "Neurites length per field, % Vehicle", "setting": "[1]; 10^−5 M, 12 hours", "result": 161, "unit": "%"}, {"measurement": "Neurites length per field, Mean", "setting": "[1]; 10^−5 M, 12 hours", "result": 680.9, "unit": "μm"}, {"measurement": "Neurites length per field, % Vehicle", "setting": "[1]; 10^−5 M, 24 hours", "result": 93, "unit": "%"}, {"measurement": "Neurites length per field, Mean", "setting": "[1]; 10^−5 M, 24 hours", "result": 200.9, "unit": "μm"}, {"measurement": "Neurites length per field, % Vehicle", "setting": "[1]; 10^−6 M, 6 hours", "result": 139, "unit": "%"}, {"measurement": "Neurites length per field, Mean", "setting": "[1]; 10^−6 M, 6 hours", "result": 354.5, "unit": "μm"}, {"measurement": "Neurites length per field, % Vehicle", "setting": "[1]; 10^−6 M, 12 hours", "result": 137, "unit": "%"}, {"measurement": "Neurites length per field, Mean", "setting": "[1]; 10^−6 M, 12 hours", "result": 580.3, "unit": "μm"}, {"measurement": "Neurites length per field, % Vehicle", "setting": "[1]; 10^−6 M, 24 hours", "result": 104, "unit": "%"}, {"measurement": "Neurites length per field, Mean", "setting": "[1]; 10^−6 M, 24 hours", "result": 224.8, "unit": "μm"}, {"measurement": "Neurites length per field, % Vehicle", "setting": "[1]; 10^−7 M, 6 hours", "result": 138, "unit": "%"}, {"measurement": "Neurites length per field, Mean", "setting": "[1]; 10^−7 M, 6 hours", "result": 350.5, "unit": "μm"}, {"measurement": "Neurites length per field, % Vehicle", "setting": "[1]; 10^−7 M, 12 hours", "result": 137, "unit": "%"}, {"measurement": "Neurites length per field, Mean", "setting": "[1]; 10^−7 M, 12 hours", "result": 956.7, "unit": "μm"}, {"measurement": "Neurites length per field, % Vehicle", "setting": "[1]; 10^−7 M, 24 hours", "result": 126, "unit": "%"}, {"measurement": "Neurites length per field, Mean", "setting": "[1]; 10^−7 M, 24 hours", "result": 271.7, "unit": "μm"}, {"measurement": "Neurites length per field, % Vehicle", "setting": "[1]; 10^−8 M, 6 hours", "result": 150, "unit": "%"}, {"measurement": "Neurites length per field, Mean", "setting": "[1]; 10^−8 M, 6 hours", "result": 382.4, "unit": "μm"}, {"measurement": "Neurites length per field, % Vehicle", "setting": "[1]; 10^−8 M, 12 hours", "result": 179, "unit": "%"}, {"measurement": "Neurites length per field, Mean", "setting": "[1]; 10^−8 M, 12 hours", "result": 759.0, "unit": "μm"}, {"measurement": "Neurites length per field, % Vehicle", "setting": "[1]; 10^−8 M, 24 hours", "result": 174, "unit": "%"}, {"measurement": "Neurites length per field, Mean", "setting": "[1]; 10^−8 M, 24 hours", "result": 374.6, "unit": "μm"}, {"measurement": "Neurites length per field, % Vehicle", "setting": "[1]; 10^−9 M, 6 hours", "result": 188, "unit": "%"}, {"measurement": "Neurites length per field, Mean", "setting": "[1]; 10^−9 M, 6 hours", "result": 479.3, "unit": "μm"}, {"measurement": "Neurites length per field, % Vehicle", "setting": "[1]; 10^−9 M, 12 hours", "result": 180, "unit": "%"}, {"measurement": "Neurites length per field, Mean", "setting": "[1]; 10^−9 M, 12 hours", "result": 764.9, "unit": "μm"}, {"measurement": "Neurites length per field, % Vehicle", "setting": "[1]; 10^−9 M, 24 hours", "result": 123, "unit": "%"}, {"measurement": "Neurites length per field, Mean", "setting": "[1]; 10^−9 M, 24 hours", "result": 265.9, "unit": "μm"}, {"measurement": "15d-PGJ2 in knee homogenates", "setting": "[2]; 0.1 μg/kg day, D 20-50, Day 50", "result": "78.96 ± 22.18", "unit": "pg/mL"}, {"measurement": "Clinical Score (joint swelling)", "setting": "[2]; 0.1 μg/kg day, D 20-50, Day 50", "result": "3.10 ± 2.96"}, {"measurement": "PGE2/15d-PGJ2", "setting": "[2]; 0.1 μg/kg day, D 20-50, Day 50", "result": 1.21}, {"measurement": "PGE2 in knee homogenates", "setting": "[2]; 0.1 μg/kg day, D 20-50, Day 50", "result": "95.61 ± 34.65", "unit": "pg/mL"}, {"measurement": "Histopathology Score (both paws on Day 50)", "setting": "[2]; 1.0 μg/kg s.c. daily, treatment from Day 20-50", "result": 0.60}, {"measurement": "animals completely clear of histopathological change in the paw joints", "setting": "[2]; 10.0 μg/kg, treatment day 0 to day 30", "result": "9 out of 10"}, {"measurement": "Histopathology Score (both paws on Day 50)", "setting": "[2]; 10.0 μg/kg, treatment from Day 0-30", "result": "0.2*"}, {"measurement": "Histopathology Score (both paws on Day 50)", "setting": "[2]; 10.0 μg/kg, treatment from Day 20-50", "result": 0.44}, {"measurement": "Histopathology Score (both paws on Day 50)", "setting": "[2]; 100.0 μg/kg, treatment from Day 20-50", "result": 0.85}, {"measurement": "decrease in cell death", "setting": "PC-12 cells; 1 μM", "result": "26% and 25%"}, {"measurement": "decrease in cell death", "setting": "PC-12 cells; 10 μM", "result": "53% and 50%"}]}
